Experimental data from patent US20200163984A1, “USE OF ISOVALERYL SPIRAMYCIN I, II AND/OR III IN MANUFACTURING MEDICAMENT FOR TREATING AND/OR PREVENTING TUMOR, AND MEDICAMENT” (SHENYANG FUYANG PHARMACEUTICAL TECHNOLOGY CO., LTD., priority 2017, published 2020).

Assays:
[1] = tested on: transplanted tumor of human breast cancer cell MCF-7; test: MCF-7 transplanted tumor in nude mice
Protocol: (§1) Then cell concentration was adjusted to 1×10^7/ml with matrigel, then each nude mouse was inoculated subcutaneously with 0.2 ml of cells at its right armpit and recorded as the first day of inoculation. When the tumor grows to be greater than or equal to 100 mm^3, the mice were randomly divided into 11 groups with 6 mice in each group: a model group, a cyclophosphamide group, isovaleryl spiramycin I groups with doses of 25, 50 and 100 mg/kg, isovaleryl spiramycin II groups with doses of 25, 50 and 100 mg/kg, and isovaleryl spiramycin III groups with doses of 25, 50 and 100 mg/kg. Each group was continuously administered intragastrically for 30 days with a dose of 20 ml/kg. The mice were sacrificed the next day after drug withdrawal and the indicators were tested. The long diameter and short diameter of the tumor, and the body weight of each mouse were recorded every 3 days from drug administration to nude mouse sacrifice.
(§2) The body weight of the nude mice and the long diameter (a) and short diameter (b) of the transplanted tumor were measured every 3 days, and the tumor volume (v), relative tumor volume (RTV) and relative tumor proliferation rate (T/C) are calculated respectively according to the following formulas, wherein V=a×b^2/2; RTV=V/V0 (V0 is the tumor volume before administration, V is the tumor volume before sacrifice), and T/C (%)=treatment group RTV/model control group RTV×100%.
(§3) Each mouse was weighed and sacrificed. After the tumor was completely stripped off from the body of the mouse, the non-tumor tissues such as blood stains and fat were removed to weigh the tumor and calculate the tumor growth inhibition rate. The average tumor weight of each group of mice is used as an indicator of efficacy. Tumor growth inhibition rate (%)=(1−the average tumor weight of the treatment group/the average tumor weight of the model group)×100%.

[2] = tested on: transplanted tumor of HL60 cells; test: HL-60 transplanted tumor in nude mice
Protocol: as §1, with “HL-60 cells in a logarithmic growth phase were taken and subjected to a trypan blue exclusion experiment showing that the cell viability was more than 95%, then the cells were subjected to trypsinization, centrifugation, and supernatant removal. Then” for “Then”, “group:” for “group: a model group, a cyclophosphamide group,”, “the” for “the body”
as §2, §3

[3] = tested on: transplanted tumor of human bladder cancer cell T-24; test: T-24 transplanted tumor in nude mice
Protocol: as §1, with “group:” for “group: a model group, a cyclophosphamide group,”
as §2, §3

[4] = MCF-7, 25 mg/kg (low dose) i.g. 30 days
[5] = MCF-7, 50 mg/kg (medium dose) i.g. 30 days
[6] = MCF-7, 100 mg/kg (high dose) i.g. 30 days
[7] = HL-60, high dose (100 mg/kg in method) i.g. 30 days
[8] = HL-60, low dose (25 mg/kg in method) i.g. 30 days
[9] = HL-60, medium dose (50 mg/kg in method) i.g. 30 days
[10] = T-24, high dose (100 mg/kg in method) i.g. 30 days
[11] = T-24, low dose (25 mg/kg in method) i.g. 30 days
[12] = T-24, medium dose (50 mg/kg in method) i.g. 30 days

Compound: O=P1(N(CCCl)CCCl)NCCCO1 (stereo not drawn) [Cyclophosphamide, cyclophosphamide, reference compound]
- Body Weight (d 1) ([1]; MCF-7, 30 mg/kg i.g. 30 days): 22.03 ± 0.70 g
- Body Weight (d 30) ([1]; MCF-7, 30 mg/kg i.g. 30 days): 17.77 ± 0.65 g
- Inhibition Rate (tumor growth inhibition rate) ([1]; MCF-7, 30 mg/kg i.g. 30 days): 70.18%
- Relative Tumor Proliferation Rate (T/C) ([1]; MCF-7, 30 mg/kg i.g. 30 days): 29.56%
- Relative Tumor Volume (RTV) ([1]; MCF-7, 30 mg/kg i.g. 30 days): 5.17 ± 0.64
- Tumor Volume (d 1) ([1]; MCF-7, 30 mg/kg i.g. 30 days): 103.78 ± 12.65 mm3
- Tumor Volume (d 30) ([1]; MCF-7, 30 mg/kg i.g. 30 days): 532.62 ± 56.27 mm3
- Tumor Weight ([1]; MCF-7, 30 mg/kg i.g. 30 days): 0.81 ± 0.25*8 g
- Inhibition Rate (%) ([2]; dose 30 mg/kg): 70.30%
- Relative Tumor Proliferation Rate (T/C) ([2]; dose 30 mg/kg): 24.69%
- Relative Tumor Volume (RTV) ([2]; dose 30 mg/kg): 2.78 ± 1.89
- Tumor Weight ([2]; dose 30 mg/kg): 0.67 ± 0.30 g
- Body Weight (g) (d1) ([2]; dose 30 mg/kg, d 1): 20.65 ± 1.47 g
- Tumor Volume (mm3) (d 1) ([2]; dose 30 mg/kg, d 1): 180.63 ± 29.97 mm3
- Body Weight (g) (d30) ([2]; dose 30 mg/kg, d 30): 18.47 ± 0.91 g
- Tumor Volume (mm3) (d30) ([2]; dose 30 mg/kg, d 30): 466.98 ± 255.88 mm3
- Inhibition Rate (%) ([3]; dose 30 mg/kg): 73.04%
- Relative Tumor Proliferation Rate (T/C) ([3]; dose 30 mg/kg): 21.60%
- Relative Tumor Volume (RTV) ([3]; dose 30 mg/kg): 2.85 ± 0.50
- Tumor Weight ([3]; dose 30 mg/kg): 0.51 ± 0.12 g
- Body Weight (g) (d1) ([3]; dose 30 mg/kg, d 1): 19.53 ± 0.61 g
- Tumor Volume (mm3) (d 1) ([3]; dose 30 mg/kg, d 1): 136.87 ± 19.82 mm3
- Body Weight (g) (d30) ([3]; dose 30 mg/kg, d 30): 27.28 ± 1.43 g
- Tumor Volume (mm3) (d30) ([3]; dose 30 mg/kg, d 30): 389.34 ± 82.07 mm3

Compound: CO[C@@H]1[C@@H](O[C@@H]2O[C@H](C)[C@@H](O[C@H]3C[C@@](C)(O)[C@@H](OC(=O)CC(C)C)[C@H](C)O3)[C@H](N(C)C)[C@H]2O)[C@@H](CC=O)C[C@@H](C)[C@@H](O[C@H]2CC[C@H](N(C)C)[C@@H](C)O2)/C=C/C=C/C[C@@H](C)OC(=O)C[C@H]1O [Isovaleryl spiramycin I, isovaleryl spiramycin I]
- Inhibition Rate (tumor growth inhibition rate) [1, 4]: 31.10%
- Relative Tumor Proliferation Rate (T/C) [1, 4]: 71.92%
- Relative Tumor Volume (RTV) [1, 4]: 12.59 ± 7.49
- Tumor Volume (d 1) [1, 4]: 139.97 ± 26.58 mm3
- Tumor Volume (d 30) [1, 4]: 1634.85 ± 789.61 mm3
- Tumor Weight [1, 4]: 1.87 ± 0.25 g
- Inhibition Rate (tumor growth inhibition rate) [1, 5]: 51.72%
- Relative Tumor Proliferation Rate (T/C) [1, 5]: 49.05%
- Relative Tumor Volume (RTV) [1, 5]: 8.58 ± 4.41
- Tumor Volume (d 1) [1, 5]: 146.57 ± 32.97 mm3
- Tumor Volume (d 30) [1, 5]: 1162.80 ± 394.71 mm3
- Tumor Weight [1, 5]: 1.31 ± 0.50 g
- Inhibition Rate (tumor growth inhibition rate) [1, 6]: 70.12%
- Relative Tumor Proliferation Rate (T/C) [1, 6]: 30.80%
- Relative Tumor Volume (RTV) [1, 6]: 5.39 ± 0.97
- Tumor Volume (d 1) [1, 6]: 124.02 ± 15.14 mm3
- Tumor Volume (d 30) [1, 6]: 656.95 ± 49.58 mm3
- Tumor Weight [1, 6]: 0.81 ± 0.08 g
- tumor volume and relative tumor volume compared with the model group ([1]; MCF-7, low, medium and high doses, P<0.05): significantly lower
- mouse weight compared with the model group ([1]; mouse, in vivo): no significant changes
- Relative Tumor Proliferation Rate (T/C) [2, 7]: 32.70%
- tumor growth inhibition rate [2, 7]: 64.19%
- Relative Tumor Proliferation Rate (T/C) [2, 8]: 84.96%
- tumor growth inhibition rate [2, 8]: 11.57%
- tumor volume and relative tumor volume compared with the model group ([2]; HL-60, low, medium and high doses, P<0.05): significantly lower
- Relative Tumor Proliferation Rate (T/C) [2, 9]: 59.54%
- tumor growth inhibition rate [2, 9]: 34.78%
- Inhibition Rate (%) ([2]; dose 25 mg/kg): 11.57%
- Relative Tumor Proliferation Rate (T/C) ([2]; dose 25 mg/kg): 84.96%
- Relative Tumor Volume (RTV) ([2]; dose 25 mg/kg): 9.56 ± 2.41
- Tumor Weight ([2]; dose 25 mg/kg): 2.00 ± 0.34 g
- Tumor Volume (mm3) (d 1) ([2]; dose 25 mg/kg, d 1): 182.56 ± 25.80 mm3
- Tumor Volume (mm3) (d30) ([2]; dose 25 mg/kg, d 30): 1702.01 ± 305.75 mm3
- Inhibition Rate (%) ([2]; dose 50 mg/kg): 34.78%
- Relative Tumor Proliferation Rate (T/C) ([2]; dose 50 mg/kg): 59.54%
- Relative Tumor Volume (RTV) ([2]; dose 50 mg/kg): 6.70 ± 2.58
- Tumor Weight ([2]; dose 50 mg/kg): 1.48 ± 0.38 g
- Tumor Volume (mm3) (d 1) ([2]; dose 50 mg/kg, d 1): 189.04 ± 24.48 mm3
- Tumor Volume (mm3) (d30) ([2]; dose 50 mg/kg, d 30): 1230.70 ± 332.94 mm3
- Inhibition Rate (%) ([2]; dose 100 mg/kg): 64.19%
- Relative Tumor Proliferation Rate (T/C) ([2]; dose 100 mg/kg): 32.70%
- Relative Tumor Volume (RTV) ([2]; dose 100 mg/kg): 3.68 ± 2.51
- Tumor Weight ([2]; dose 100 mg/kg): 0.81 ± 0.42 g
- Tumor Volume (mm3) (d 1) ([2]; dose 100 mg/kg, d 1): 183.82 ± 20.41 mm3
- Tumor Volume (mm3) (d30) ([2]; dose 100 mg/kg, d 30): 657.95 ± 411.53 mm3
- mouse weight compared with the model group ([2]; mouse, in vivo): no significant changes
- Body Weight (g) (d1) ([2]; mouse, in vivo, 25 mg/kg): 20.75 ± 1.20 g
- Body Weight (g) (d30) ([2]; mouse, in vivo, 25 mg/kg): 20.66 ± 1.08 g
- Body Weight (g) (d1) ([2]; mouse, in vivo, 50 mg/kg): 20.4 ± 1.60 g
- Body Weight (g) (d30) ([2]; mouse, in vivo, 50 mg/kg): 20.35 ± 1.20 g
- Body Weight (g) (d1) ([2]; mouse, in vivo, 100 mg/kg): 20.63 ± 1.33 g
- Body Weight (g) (d30) ([2]; mouse, in vivo, 100 mg/kg): 20.56 ± 1.77 g
- Relative Tumor Proliferation Rate (T/C) [3, 10]: 33.95%
- tumor growth inhibition rate [3, 10]: 65.84%
- Relative Tumor Proliferation Rate (T/C) [3, 11]: 77.78%
- tumor growth inhibition rate [3, 11]: 20.55%
- tumor volume and relative tumor volume compared with the model group ([3]; T-24, low, medium and high doses, P<0.05): significantly lower
- Relative Tumor Proliferation Rate (T/C) [3, 12]: 58.92%
- tumor growth inhibition rate [3, 12]: 49.20%
- Inhibition Rate (%) ([3]; dose 25 mg/kg): 20.55%
- Relative Tumor Proliferation Rate (T/C) ([3]; dose 25 mg/kg): 77.78%
- Relative Tumor Volume (RTV) ([3]; dose 25 mg/kg): 10.28 ± 1.12
- Tumor Weight ([3]; dose 25 mg/kg): 1.49 ± 0.23 g
- Tumor Volume (mm3) (d 1) ([3]; dose 25 mg/kg, d 1): 139.84 ± 15.80 mm3
- Tumor Volume (mm3) (d30) ([3]; dose 25 mg/kg, d 30): 1428.71 ± 156.12 mm3
- Inhibition Rate (%) ([3]; dose 50 mg/kg): 49.20%
- Relative Tumor Proliferation Rate (T/C) ([3]; dose 50 mg/kg): 58.92%
- Relative Tumor Volume (RTV) ([3]; dose 50 mg/kg): 7.78 ± 1.27
- Tumor Weight ([3]; dose 50 mg/kg): 0.95 ± 0.38 g
- Tumor Volume (mm3) (d 1) ([3]; dose 50 mg/kg, d 1): 131.81 ± 7.15 mm3
- Tumor Volume (mm3) (d30) ([3]; dose 50 mg/kg, d 30): 1025.16 ± 174.78 mm3
- Inhibition Rate (%) ([3]; dose 100 mg/kg): 65.84%
- Relative Tumor Proliferation Rate (T/C) ([3]; dose 100 mg/kg): 33.95%
- Relative Tumor Volume (RTV) ([3]; dose 100 mg/kg): 4.48 ± 0.75
- Tumor Weight ([3]; dose 100 mg/kg): 0.64 ± 0.18 g
- Tumor Volume (mm3) (d 1) ([3]; dose 100 mg/kg, d 1): 134.21 ± 14.43 mm3
- Tumor Volume (mm3) (d30) ([3]; dose 100 mg/kg, d 30): 606.16 ± 136.06 mm3
- mouse weight compared with the model group ([3]; mouse, in vivo): no significant changes
- Body Weight (g) (d1) ([3]; mouse, in vivo, 25 mg/kg): 19.51 ± 0.58 g
- Body Weight (g) (d30) ([3]; mouse, in vivo, 25 mg/kg): 23.89 ± 1.18 g
- Body Weight (g) (d1) ([3]; mouse, in vivo, 50 mg/kg): 19.60 ± 0.70 g
- Body Weight (g) (d30) ([3]; mouse, in vivo, 50 mg/kg): 25.41 ± 0.92 g
- Body Weight (g) (d1) ([3]; mouse, in vivo, 100 mg/kg): 19.49 ± 0.54 g
- Body Weight (g) (d30) ([3]; mouse, in vivo, 100 mg/kg): 24.6 ± 2.08 g
